Measurements from patent US6117975A, “Melanocortin receptor polypeptides MC-3, MC-4, and MC-5” (The Regents of the University of Michigan, priority 1996, dated 2000).

Legend:
[1] = test system: chimeric receptor cH2R/MC3R-3i; details: chimeric cH2R/MC3R-3i, Hepa cells
Source text: (§1) Chimeric Receptor. […] The chimeric receptor (cH2R/MC3R-3i) was constructed by cassette mutation at the junction of the fifth and sixth transmembrane domains of cH2R. Six PCR primers were used to generate three DNA fragments which were subsequently ligated together. The three PCR-generated fragments consisted of 1) the 5' coding region of the cH2R receptor beginning just prior to the ATG codon and ending with the 3' end of the fifth transmembrane domain; 2) the portion of the MC3 receptor gene encoding its third intracytoplasmic loop; and 3) the 3' coding region of the cH2R beginning with that segment encoding the 5' end of the sixth transmembrane domain and ending slightly past the termination codon. The DNA fragments were cut with appropriate restriction enzymes at pre-engineered restriction sites designed so that the three fragments could be assembled together in only the correct alignment. Restriction sites were also designed to facilitate subcloning the chimeric receptor DNA into CMVneo and the sequencing vector M13. The nucleotide sequence of the CMVneo cH2R/MC3R-3i construct was confirmed prior to expression in Hepa cells.
(§2) cAMP Assays. A cAMP assay kit purchased from Amersham (TRK 432, Arlington Heights, Ill.) was employed. Transfected cells were grown to confluence in 12-well (2.4×1.7 cm) tissue culture plates. […]

[2] = target: T1, wild-type H2-histamine receptor (cH2R) (Canis lupus familiaris, UniProt P17124); details: Hepa cells
Source text: as §1, §2

[3] = target: T1, wild-type H2-histamine receptor (cH2R); details: Hepa cells; remark: listed apart in the source
Source text: as §1
(§3) Inositol Phosphate (IP) Assays.

[4] = test system: chimeric receptor cH2R/MC3R-3i; test: [3H] IP production in Hepa cells transfected with chimeric cH2R/hMC3R-3i; format: cell-based; details: chimeric cH2R/MC3R-3i, Hepa cells
Source text: as §1, §3

T1 sequence (P17124 whole entry): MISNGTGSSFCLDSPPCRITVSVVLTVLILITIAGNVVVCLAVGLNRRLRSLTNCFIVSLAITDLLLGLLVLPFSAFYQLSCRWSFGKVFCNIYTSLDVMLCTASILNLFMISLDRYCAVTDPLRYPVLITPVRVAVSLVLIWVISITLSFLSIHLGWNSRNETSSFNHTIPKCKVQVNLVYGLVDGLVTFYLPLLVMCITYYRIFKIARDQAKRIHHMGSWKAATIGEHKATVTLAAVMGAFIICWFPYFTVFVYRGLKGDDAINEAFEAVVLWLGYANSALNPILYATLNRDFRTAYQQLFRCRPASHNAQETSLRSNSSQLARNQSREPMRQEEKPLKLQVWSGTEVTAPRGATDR

- cAMP dose-response (in words) [1]: monophasic cAMP dose-response curve
SMILES: NCCc1c[nH]cn1 [histamine]
- cAMP dose-response (in words) [2]: monophasic dose-dependent increases in both cAMP and [^3 H]-IP production
- [3H]-IP production dose-response (in words) [3]: monophasic dose-dependent increases in both cAMP and [^3 H]-IP production
- [3H]-IP production dose-response (in words) [4]: biphasic dose-response curve for [^3 H]-IP production
